Results taken from US20220089602A1, “COMPOUNDS THAT INDUCE FERROPTIC CELL DEATH” (The Board of Trustees of the University of Illinois, priority 2019, published 2022).

Tests used:
[1] = test system: E. coli; assay: Antibacterial activity (MIC); assay type: cell-based; conditions: Escherichia coli; gram-negative (E. coli)
[2] = test system: 4T1 triple negative breast cancer cells; assay: 4T1 subcutaneous tumor model, immunocompromised mice; assay type: in vivo; conditions: 50 mg/kg i.p., twice a week, five doses, SCID; listed as ferroptocide
Description: The protocol was approved by the IACUC at the University of Illinois at Urbana-Champaign (Protocol Number: 17192). 9-week old female Balb/C or SCID mice (Charles River) were lightly sedated with i.p. xylazine/ketamine/saline solution. Following sedation, 4T1 murine breast cancer cells suspended in chilled HBSS (100 μL of 4×10^6 cells/mL) were injected subcutaneously into the right flank of shaved and sedated mice using an insulin syringe. On day 8 after inoculation, mice were randomized with 7 mice per group for vehicle or ferroptocide treatment. Vehicle (PEG400) or ferroptocide (50 mg/kg) was administered intraperitoneally as a PEG400 solution twice a week for 5 times. Tumor measurements were performed every 3 or 4 days using a caliper and tumor volume was calculated using the equation (0.5×l×w^2). On day 23 after the 4T1 cells inoculation, mice were sacrificed. Tumors were then surgically removed, and their mass was measured.

[3] = test system: red blood cells; assay: Hemolysis assay; assay type: cell-based, human; conditions: 2 hr treatment with 333 μM
Description: Whole human blood in citrate phosphate dextrose was obtained from Bioreclamation LLC, stored at 4° C. and used before expiration date. 100 μL of whole blood was combined with 500 μL saline (0.9% NaCl) and centrifuged for 5 min at 300×g. The supernatant was carefully removed from the erythrocyte pellet and the liquid was discarded. Washed pellet 3× in 500 μL saline. The erythrocyte pellet was resuspended in 800 μL of Red Blood Cell Buffer (10 mM Na2HPO4, 150 mM NaCl, 1 mM MgCl2, pH 7.4). To a 0.5 mL eppendorf tube or a PCR plate was added 1.0 μL of 30× compound in DMSO and 19 μL RBC Buffer. For negative controls, 1.0 μL DMSO was combined with 19 μL RBC buffer. For positive controls, either 20 μL MilliQ H2O or 1.0 μL 30% Triton X-100 were combined with 19 μL RBC Buffer. Tubes or plates were briefly centrifuged. Next, 10 μL of washed erythrocyte suspension was added to each tube, then sealed. After incubation at 37° C. for 2 h, samples were centrifuged for 5 min at 300×g, and 20 μL of supernatant was carefully removed and transferred to wells of a clear flat-bottomed 384-well plate. Absorbance was measured at 540 nm. The data were plotted as compound concentration versus percent hemolysis, and fitted to OriginPro (OriginLab, Northampton, Mass.).

[4] = test system: primary cancer cells from patients with metastatic cancers; assay: 72 hr cell viability Alamar Blue assay in primary patient-derived cells; assay type: cell-based, human; conditions: versus cisplatin, 5-FU, etoposide, PAC-1
Description: Cells were grown at 37° C. under a humidified 5% CO2 atmosphere, in a culture medium consisting of high-glucose (Life Technology) DMEM media for Mia PaCa-2, D54, U87, K7-M2, SK-MEL-5, and 3LL cells or RPMI 1640 for ES-2, HCT 116, MDA-MB-231, A549, T47D, B16-F10, and BT-549 cells or McCoy's 5A media for HT29 cells. All media were supplemented with 10% FBS (Gemini), penicillin (50 IU/ml), streptomycin (50 μg/ml) and glutamine (2 mM) (Cellgro). Primary cells were isolated from pleural effusions of metastatic patients at Carle Foundation Hospital (IRB #15149) following a protocol as described previously (Med. Sci. 2, 70-81, (2014)).
To a 384-well plate, 40 μL of 1.25× compound dilution or 1.25% DMSO-containing media was added (final volume of 1% DMSO). Concentrations of compounds tested were 100 μM to 100 nM. On each plate at least 3 technical replicates per compound were performed. Next, 10 μL of a 100,000 cells/mL suspension was added to each well, yielding a final concentration of 1,000 cells/well. To three wells in column 2 was added 1 μL of 10 mM doxorubicin (final concentration of 200 μM) as positive control of cell death. Plates were sealed with gas-permeable seals and incubated at 37° C. for 72 h. […] Fluorescence was read on a Molecular Devices SpectraMax 3 (excitation=555 nm, emission=585 nm, emission cutoff=570 nm). […]

[5] = target: T1, purified human thioredoxin (Homo sapiens, UniProt P10599); assay: Thioredoxin activity assay, biochemical (in vitro); conditions: 30 min, versus PMX464 and PX-12
T1 construct: purchased Cayman Chemical Fluorescent Thioredoxin Activity Assay kit #20039
T1 sequence (P10599 whole entry): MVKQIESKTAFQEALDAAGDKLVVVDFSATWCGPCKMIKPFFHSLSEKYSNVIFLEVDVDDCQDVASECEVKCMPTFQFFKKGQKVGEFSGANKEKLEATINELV
Description: HCT 116 cells (1×10^6 cells/flask) were treated with DMSO, 10 μM ferroptocide, 50 μM PMX464, or 50 μM PX-12 for 30 min. Cells were harvested by centrifugation, resuspended in the assay buffer and lysed via sonication. For each condition, 20 μg of cell lysate was used to measure the activity thioredoxin activity following manufacturer' protocol (Cayman Chemical, Fluorescent Thioredoxin Activity Assay kit #20039) in a 96-well black-walled plate. For in vitro studies, human thioredoxin (10 μL of 0.2 μM solution) was used in addition to thioredoxin reductase (10 μL of 1.0 μM solution), 1 μl of DMSO, ferroptocide, […], or PX-12 at indicated concentrations, 5 μL of NADPH (diluted according to manufacturer's instructions), and assay buffer to a final volume of 75 μL. The plate was incubated at 37° C. for 30 min followed by immediate addition of 20 μL fluorescent substrate per each well (diluted as instructed in the assay kit). Fluorescence was monitored over 1 hr at 520 nm after excitation at 480 nm in a SpectraMax M3 (Molecular Devices) instrument at 37° C.

C[C@@H]1CC[C@@]23C[C@H](O)C(=O)[C@@]2(O)[C@]1(C)[C@H](OC(=O)CCl)C[C@@H](C1=CCn2c(=O)n(-c4ccccc4)c(=O)n2C1)[C@@H]3C [Compound P18, ferroptocide]
MIC [1]: > 64 µg/mL | effect on subcutaneous 4T1 tumor growth (in words) [2]: no effect | hemolytic activity ([3]; listed as Ferroptocide): no hemolytic activity | hemolytic activity ([3]; listed as ferroptocide): Lack of hemolytic activity | killing of primary cancer cells versus chemotherapeutics [4]: kills these cancer cells better than approved and experimental chemotherapeutics | inhibition of purified thioredoxin, dose-response [5]: more potent thioredoxin inhibitor than PMX464 and PX-12
